Measured values taken from ChEMBL document CHEMBL1144083, “Phenylvaleric acid and flavonoid glycosides from Polygonum salicifolium” (J Nat Prod, 1999).
Active and inactive are the calls of the source. The rule behind the calls is not given here.

Legend:
Type in all cases: functional
[1] = test system: Radical scavenging activity; experiment: Antioxidant activity assessed as DPPH free radical scavenging activity at 2 ug by TLC autographic assay
[2] = test system: Radical scavenging activity; experiment: Antioxidant activity assessed as DPPH free radical scavenging activity at 4 ug by TLC autographic assay
[3] = test system: Radical scavenging activity; experiment: Antioxidant activity assessed as DPPH free radical scavenging activity at 6 ug by TLC autographic assay
[4] = test system: Radical scavenging activity; experiment: Antioxidant activity assessed as DPPH free radical scavenging activity at 8 ug by TLC autographic assay
[5] = test system: Radical scavenging activity; experiment: Antioxidant activity assessed as DPPH free radical scavenging activity by TLC autographic assay

Compound | Activity [1] | Activity [2] | Activity [3] | Activity [4] | Activity [5]
O=c1c(O[C@@H]2O[C@H](CO)[C@H](O)[C@H](O)[C@H]2O)c(-c2ccc(O)c(O)c2)oc2cc(O)cc(O)c12 | Active | Active | Active | Active | –
O=C(O[C@H]1[C@H](Oc2c(-c3ccc(O)c(O)c3)oc3cc(O)cc(O)c3c2=O)O[C@H](CO)[C@@H](O)[C@@H]1O)c1cc(O)c(O)c(O)c1 | Active | Active | Active | Active | –
CCCCOC(=O)C[C@@H](CCc1ccccc1)O[C@H]1O[C@@H](CO)[C@H](O)[C@@H](O)[C@@H]1O | – | – | – | – | inactive
O=C(O)C[C@@H](CCc1ccccc1)O[C@H]1O[C@@H](CO)[C@H](O)[C@@H](O)[C@@H]1O | – | – | – | – | inactive
O=c1c(O[C@@H]2O[C@H](CO)[C@@H](O)[C@H](O)[C@H]2O)c(-c2ccc(O)c(O)c2)oc2cc(O)cc(O)c12 | Active | Active | Active | Active | –
O=C(O)[C@H]1O[C@@H](Oc2c(-c3ccc(O)c(O)c3)oc3cc(O)cc(O)c3c2=O)[C@H](O)[C@@H](O)[C@@H]1O | Active | Active | Active | Active | –
COc1cc(O[C@@H]2O[C@H](CO[C@@H]3O[C@H](CO)[C@@H](O)[C@H](O)[C@H]3O)[C@@H](O)[C@H](O)[C@H]2O)c(OC)c(O)c1C(=O)CCc1ccccc1 | – | – | – | – | inactive
